Patent US20060128721A1, “Novel formulations of opioid-based treatments of pain comprising substituted 1,4-di-piperidin-4-yl-piperazine derivatives” (priority 2003, published 2006)

Tests used:
[1] = target: T1, cloned human h-NK2 receptors expressed in Sf9 cells (Homo sapiens, UniProt P21452); test: Binding experiment for h-NK2 receptors ([3H]-SR-48968 displacement); details: [3H]-SR-48968, Sf9 cells; read-out: h-NK2 pIC50 (converted)
T1 construct: expressed in transfected cells; host or cells: Sf9 cells
T1 sequence (P21452 1-398): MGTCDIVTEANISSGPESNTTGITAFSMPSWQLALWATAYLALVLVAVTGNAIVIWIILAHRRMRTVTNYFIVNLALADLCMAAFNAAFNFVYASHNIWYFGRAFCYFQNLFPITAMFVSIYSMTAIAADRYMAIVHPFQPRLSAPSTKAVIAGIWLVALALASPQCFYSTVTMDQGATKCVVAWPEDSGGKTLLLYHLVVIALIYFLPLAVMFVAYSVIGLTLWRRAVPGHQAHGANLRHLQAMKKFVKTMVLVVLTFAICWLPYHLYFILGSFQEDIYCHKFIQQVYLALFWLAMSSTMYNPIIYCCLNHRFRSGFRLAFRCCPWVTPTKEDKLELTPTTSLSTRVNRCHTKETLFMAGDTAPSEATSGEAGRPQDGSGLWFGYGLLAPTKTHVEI
Method: (§1) The compounds according to the invention were investigated for interaction with various neurotransmitter receptors, ion channels and transporter binding sites using the radioligand binding technique. Membranes from tissue homogenates or from cells, expressing the receptor or transporter of interests, were incubated with a radioactively labelled substance ([^3H]- or [^125I] ligand) to label a particular receptor. […] Following incubation, labelled membranes were harvested and rinsed with excessive cold buffer to remove non-bound radioactivity by rapid filtration under suction. Membrane bound radioactivity was counted in a scintillation counter and results were expressed in counts per minute (cpm).
(§2) The compounds were dissolved in DMSO and tested at 10 concentrations ranging from 10^−10 to 10^−5 M.
(§3) The ability of the compounds according to the invention to displace [^3H]-Substance P from cloned human h-NK1 receptors expressed in CHO cells, to displace [^3H]-SR-48968 from cloned human h-NK2 receptors expressed in Sf9 cells, and to displace [^3H]-SR-142801 from cloned human h-NK3 receptors expressed in CHO cells was evaluated.

[2] = target: T2, cloned human h-NK1 receptors expressed in CHO cells (Homo sapiens, UniProt P25103); test: Binding experiment for h-NK1 receptors ([3H]-Substance P displacement); details: read-out: h-NK1 pIC50 (converted)
T2 construct: expressed in transfected cells; host or cells: CHO cells
T2 sequence (P25103 whole entry): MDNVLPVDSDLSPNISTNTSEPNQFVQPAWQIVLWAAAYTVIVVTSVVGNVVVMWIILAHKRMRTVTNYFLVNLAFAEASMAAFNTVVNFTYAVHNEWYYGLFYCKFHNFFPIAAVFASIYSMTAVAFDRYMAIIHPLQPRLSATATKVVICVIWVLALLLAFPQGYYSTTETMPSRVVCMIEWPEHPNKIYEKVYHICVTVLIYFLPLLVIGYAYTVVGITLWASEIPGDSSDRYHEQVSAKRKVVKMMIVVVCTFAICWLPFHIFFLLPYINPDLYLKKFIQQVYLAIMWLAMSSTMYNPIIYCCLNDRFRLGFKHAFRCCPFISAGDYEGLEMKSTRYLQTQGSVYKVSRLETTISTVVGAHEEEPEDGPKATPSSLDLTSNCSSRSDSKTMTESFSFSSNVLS
Method: as §1, §2, §3

[3] = target: T3, cloned human h-NK3 receptors expressed in CHO cells (Homo sapiens, UniProt P29371); test: Binding experiment for h-NK3 receptors ([3H]-SR-142801 displacement); details: [3H]-SR-142801, CHO cells; read-out: h-NK3 pIC50 (converted)
T3 construct: expressed in transfected cells; host or cells: CHO cells
T3 sequence (P29371 1-465): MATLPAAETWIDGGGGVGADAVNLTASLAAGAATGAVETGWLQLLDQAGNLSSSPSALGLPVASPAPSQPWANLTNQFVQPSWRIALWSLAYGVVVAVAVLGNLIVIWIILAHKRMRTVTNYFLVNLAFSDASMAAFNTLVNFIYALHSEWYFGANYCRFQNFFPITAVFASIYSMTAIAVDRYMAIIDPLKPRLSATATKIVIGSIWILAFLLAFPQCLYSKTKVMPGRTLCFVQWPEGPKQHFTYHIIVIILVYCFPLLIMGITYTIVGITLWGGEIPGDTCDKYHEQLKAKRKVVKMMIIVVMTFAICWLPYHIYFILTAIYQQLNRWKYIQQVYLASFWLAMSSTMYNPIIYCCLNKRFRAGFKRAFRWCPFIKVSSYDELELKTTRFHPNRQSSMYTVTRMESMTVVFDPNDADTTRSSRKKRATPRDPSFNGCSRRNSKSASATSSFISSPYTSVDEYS
Method: as §1, §2, §3

SMILES | IC50 [1] | IC50 [2] | IC50 [3]
Cc1cccc(C(=O)N2CCC(N3CCN([C@H]4CCN(C(=O)c5cc(C(F)(F)F)cc(C(F)(F)F)c5)[C@H](Cc5ccccc5)C4)CC3)CC2)c1 [Compound 37] | 501 nM | 3.98 nM | 251 nM
N#Cc1cccc(C(=O)N2CCC(N3CCN([C@H]4CCN(C(=O)c5cc(C(F)(F)F)cc(C(F)(F)F)c5)[C@H](Cc5ccccc5)C4)CC3)CC2)c1 [Compound 39] | 1000 nM | 0.794 nM | 1000 nM
O=C(c1cc(F)cc(F)c1)N1CCC(N2CCN([C@H]3CCN(C(=O)c4cc(C(F)(F)F)cc(C(F)(F)F)c4)[C@H](Cc4ccccc4)C3)CC2)CC1 [Compound 51] | 631 nM | 1.26 nM | 398 nM
Cc1ccc(O)c(C(=O)N2CCC(N3CCN([C@H]4CCN(C(=O)c5cc(C(F)(F)F)cc(C(F)(F)F)c5)[C@H](Cc5ccccc5)C4)CC3)CC2)c1 [Compound 56] | 501 nM | 1 nM | 200 nM
O=C(c1cc(F)c(F)cc1F)N1CCC(N2CCN([C@H]3CCN(C(=O)c4cc(C(F)(F)F)cc(C(F)(F)F)c4)[C@H](Cc4ccccc4)C3)CC2)CC1 [Compound 62] | 398 nM | 0.631 nM | 251 nM
COc1cc(C(=O)N2CCC(N3CCN([C@H]4CCN(C(=O)c5cc(C(F)(F)F)cc(C(F)(F)F)c5)[C@H](Cc5ccccc5)C4)CC3)CC2)cc(OC)c1OC [Compound 65] | 631 nM | 3.98 nM | 251 nM
O=C(c1ccccn1)N1CCC(N2CCN([C@H]3CCN(C(=O)c4cc(C(F)(F)F)cc(C(F)(F)F)c4)[C@H](Cc4ccccc4)C3)CC2)CC1 [Compound 79] | 316 nM | 6.31 nM | 398 nM
O=C(c1cccnc1)N1CCC(N2CCN([C@H]3CCN(C(=O)c4cc(C(F)(F)F)cc(C(F)(F)F)c4)[C@H](Cc4ccccc4)C3)CC2)CC1 [Compound 80] | 794 nM | 0.501 nM | 251 nM
CC(C)(C)OC(=O)N1CCCCC1C(=O)N1CCC(N2CCN([C@H]3CCN(C(=O)c4cc(C(F)(F)F)cc(C(F)(F)F)c4)[C@H](Cc4ccccc4)C3)CC2)CC1 (stereo partly drawn) [Compound 89] | 631 nM | 2.51 nM | 631 nM
CC(C)(C)OC(=O)N1Cc2ccccc2C[C@H]1C(=O)N1CCC(N2CCN([C@H]3CCN(C(=O)c4cc(C(F)(F)F)cc(C(F)(F)F)c4)[C@H](Cc4ccccc4)C3)CC2)CC1 [Compound 90] | 316 nM | 31.6 nM | 126 nM
Cc1cccc(C)c1NC(=O)CN1CCC(N2CCN([C@H]3CCN(C(=O)c4cc(C(F)(F)F)cc(C(F)(F)F)c4)[C@H](Cc4ccccc4)C3)CC2)CC1 [Compound 97] | 501 nM | 0.316 nM | 398 nM
COCC(=O)N1CCC(N2CCN([C@H]3CCN(C(=O)c4cc(C(F)(F)F)cc(C(F)(F)F)c4)[C@H](Cc4ccccc4)C3)CC2)CC1 [Compound 104] | 1580 nM | 0.631 nM | 1580 nM
COc1cc(CC(=O)N2CCC(N3CCN([C@H]4CCN(C(=O)c5cc(C(F)(F)F)cc(C(F)(F)F)c5)[C@H](Cc5ccccc5)C4)CC3)CC2)cc(OC)c1OC [Compound 106] | 1000 nM | 1 nM | 501 nM
O=C(C(c1ccccc1)N1CCCC1)N1CCC(N2CCN(C3CCN(C(=O)c4cc(C(F)(F)F)cc(C(F)(F)F)c4)C(Cc4ccccc4)C3)CC2)CC1 (stereo not drawn) [Compound 113] | 398 nM | 1 nM | 398 nM
O=C(C(c1ccccc1)N1CCOCC1)N1CCC(N2CCN([C@H]3CCN(C(=O)c4cc(C(F)(F)F)cc(C(F)(F)F)c4)[C@H](Cc4ccccc4)C3)CC2)CC1 (stereo partly drawn) [Compound 116] | 794 nM | 2.51 nM | 158 nM
COc1ccc(C)cc1S(=O)(=O)N1CCC(N2CCN(C3CCN(C(=O)c4cc(C(F)(F)F)cc(C(F)(F)F)c4)C(Cc4ccccc4)C3)CC2)CC1 (stereo not drawn) [Compound 119] | 1000 nM | 25.1 nM | 1000 nM
Cc1nnsc1C(=O)N1CCC(N2CCN([C@@H]3CCN(C(=O)c4cc(C(F)(F)F)cc(C(F)(F)F)c4)[C@H](Cc4ccccc4)C3)CC2)CC1 [Compound 139] | 794 nM | 1.58 nM | 316 nM
Cc1nnsc1C(=O)N1CCC(N2CCN([C@H]3CCN(C(=O)c4cc(C(F)(F)F)cc(C(F)(F)F)c4)[C@@H](Cc4ccccc4)C3)CC2)CC1 [Compound 140] | 3980 nM | 3.16 nM | 5010 nM
Cc1nnsc1C(=O)N1CCC(N2CCN([C@@H]3CCN(C(=O)c4cc(C(F)(F)F)cc(C(F)(F)F)c4)[C@@H](Cc4ccccc4)C3)CC2)CC1 [Compound 141] | 3980 nM | 7.94 nM | 3980 nM
